Measurements published in patent publication US20240140948A1, “PYRIDOPYRIMIDINE DERIVATIVES AS KRAS INHIBITORS” (BETA PHARMA, INC., priority 2021, published 2024).
Where two headings read alike, the source gives them in different places. One block for each compound: values may come before it.

Key:
KRAS G12C = target: T1, KRAS G12C (Homo sapiens, UniProt P01116, G12C); experiment: KRAS G12C/SOS1 Nucleotide Exchange Assay (SOS1-mediated Bodipy-GDP to GTP exchange); format: biochemical; details: substrate Bodipy-GDP/Kras G12C, 0.5% DMSO; 30 min pre-incubation at RT; dRFU analysis method for covalent inhibitors
T1 construct: aa 2-169, expressed in E. coli; His-tag (TEV cleavable) (N); purchased Reaction Biology Corporation (RBC) SOS1: RBC cat #MSC-11-502; KRAS G12C: none printed; host or cells: E. coli
T1 sequence (P01116 2-169 G12C): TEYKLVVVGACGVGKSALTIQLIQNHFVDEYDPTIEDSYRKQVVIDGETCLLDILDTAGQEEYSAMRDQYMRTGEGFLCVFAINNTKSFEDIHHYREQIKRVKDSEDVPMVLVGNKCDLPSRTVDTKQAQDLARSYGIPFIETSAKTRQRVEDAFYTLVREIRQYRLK
Protocol: The excess Bodipy-GDP is separated from loaded protein using a spin desalting column.
• 1. […] Deliver compounds in 100% DMSO into buffer using acoustic technology (Echo550; nanoliter range). • 3. […] Prepare 3× (SOS1+GTP) solution in reaction buffer. • 5. Deliver 5 μL of SOS1+GTP solution into reactions wells (deliver GTP only to column 1 for no SOS1 control). • 6.
where Yraw is defined as fluorescence at time t, Ao is the average initial fluorescence with no SOS1, and M is the minimum fluorescence at the end of the reaction at the maximum SOS1.
The background subtracted signals (no SOS1 protein wells were used as background) were converted to % activity relative to DMSO controls. Data was analyzed using GraphPad Prism 4 with “sigmoidal dose-response (variable slope)”; 4 parameters with Hill Slope. The constraints were bottom (constant equal to 0) and top (must be less than 120).

[1] = Pharmacokinetics in male CD-1 mice; format: in vivo; details: for MRT inf: read-out: MRT0-inf; for MRT last: read-out: MRT0-last
Protocol: The pharmacokinetic profile of the Example 2 (compound la) was determined in male CD-1 mice by WuXi AppTec Co., Ltd., 1318 Wuzhong Avenue, Wuzhong District, Suzhou, China, 215104.

[2] = mouse, 30 mg/kg PO, mean plasma

IC50 (KRAS G12C): 27 nM
SMILES: C=CC(=O)N1CCN(c2nc(OC[C@@H]3CCCN3C)nc3cc(-c4cccc5cccc(Cl)c45)cnc23)C[C@@H]1CC#N [Example 1, 2-((S)-1-Acryloyl-4-(7-(8-chloronaphthalen-1-yl)-2-(((S)-1-methylpyrrolidin-2-yl)methoxy)pyrido[3,2-d]pyrimidin-4-yl)piperazin-2-yl)acetonitrile]

IC50 (KRAS G12C): 63 nM | AUCExtra ([1]; 3 mg/kg IV, mean plasma): 9.23% | AUMCExtra ([1]; 3 mg/kg IV, mean plasma): 35.2% | Tlast ([1]; 3 mg/kg IV, mean plasma): 8.00 h | AUCExtra ([1]; 30 mg/kg PO, mean plasma): 17.1% | AUMCExtra ([1]; 30 mg/kg PO, mean plasma): 43.8% | Tlast ([1]; 30 mg/kg PO, mean plasma): 8.00 h | AUC(0-inf) ([1]; mouse, 3 mg/kg IV, mean plasma): 2450 ng·h/mL | AUC(0-t) ([1]; mouse, 3 mg/kg IV, mean plasma): 2220 ng·h/mL | C0 ([1]; mouse, 3 mg/kg IV, mean plasma): 1270 ng/mL | clearance ([1]; mouse, 3 mg/kg IV, mean plasma): 20.4 mL/min/kg | half-life ([1]; mouse, 3 mg/kg IV, mean plasma, Rsq_adj 0.828 (<0.9, might not be accurately estimated)): 1.89 h | MRT inf ([1]; mouse, 3 mg/kg IV, mean plasma): 2.81 h | MRT last ([1]; mouse, 3 mg/kg IV, mean plasma): 2 h | Vd ([1]; mouse, 3 mg/kg IV, mean plasma, read-out: Vdss): 3.44 L/kg | AUC(0-inf) [1, 2]: 7070 ng·h/mL | AUC(0-t) [1, 2]: 5860 ng·h/mL | Cmax [1, 2]: 1220 ng/mL | Tmax [1, 2]: 1 h | half-life [1, 2]: 2.88 h | MRT inf [1, 2]: 4.75 h | MRT last [1, 2]: 3.22 h | bioavailability ([1]; mouse, plasma, 30 mg/kg PO vs 3 mg/kg IV, calculated from AUC0-inf with nominal dose, read-out: Bioavailability (% F)): 28.8%
SMILES: C=C(F)C(=O)N1CCN(c2nc(OC[C@@H]3CCCN3C)nc3cc(-c4cccc5cccc(Cl)c45)cnc23)C[C@@H]1CC#N [Example 2, 2-((S)-4-(7-(8-Chloronaphthalen-1-yl)-2-(((S)-1-methylpyrrolidin-2-yl)methoxy)pyrido[3,2-d]pyrimidin-4-yl)-1-(2-fluoroacryloyl)piperazin-2-yl)acetonitrile]
